Our source for the Concentration values is ChEMBL document CHEMBL1137963, “New oligomers of conduritol-F and muco-inositol. Synthesis and biological evaluation as glycosidase inhibitors” (Bioorg Med Chem Lett, 2004).

Assay [1] has as its target T1, Beta-galactosidase (Homo sapiens) (UniProt P16278).
T1 sequence (whole entry): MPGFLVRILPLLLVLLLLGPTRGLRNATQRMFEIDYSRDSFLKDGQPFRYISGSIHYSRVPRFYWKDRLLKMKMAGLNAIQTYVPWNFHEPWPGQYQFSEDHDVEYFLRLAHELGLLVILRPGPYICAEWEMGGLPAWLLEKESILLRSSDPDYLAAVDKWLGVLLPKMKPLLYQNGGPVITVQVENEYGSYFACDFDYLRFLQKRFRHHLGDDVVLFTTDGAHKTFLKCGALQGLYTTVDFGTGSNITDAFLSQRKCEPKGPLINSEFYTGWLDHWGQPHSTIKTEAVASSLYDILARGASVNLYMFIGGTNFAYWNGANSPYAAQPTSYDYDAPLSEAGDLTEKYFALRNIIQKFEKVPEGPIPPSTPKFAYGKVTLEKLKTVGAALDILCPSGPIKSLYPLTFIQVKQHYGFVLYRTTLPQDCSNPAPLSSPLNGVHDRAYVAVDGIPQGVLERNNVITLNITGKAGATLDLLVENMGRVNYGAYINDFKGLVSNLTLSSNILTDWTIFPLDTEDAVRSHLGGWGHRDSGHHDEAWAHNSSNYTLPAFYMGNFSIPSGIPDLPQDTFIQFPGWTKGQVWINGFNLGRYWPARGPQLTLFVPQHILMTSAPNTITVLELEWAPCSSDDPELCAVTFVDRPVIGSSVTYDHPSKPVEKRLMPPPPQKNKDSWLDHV
Put plainly: Concentration required to inhibit beta-galactosidase.

Assay [2] addresses Beta-glucosidase A (Caldicellulosiruptor saccharolyticus) (UniProt P10482). Put plainly: Concentration required to inhibit beta-glucosidase; IA means inactive.
Assay [3] has as its target T2, Beta-mannosidase (Rattus norvegicus) (UniProt Q4FZV0).
T2 sequence (whole entry): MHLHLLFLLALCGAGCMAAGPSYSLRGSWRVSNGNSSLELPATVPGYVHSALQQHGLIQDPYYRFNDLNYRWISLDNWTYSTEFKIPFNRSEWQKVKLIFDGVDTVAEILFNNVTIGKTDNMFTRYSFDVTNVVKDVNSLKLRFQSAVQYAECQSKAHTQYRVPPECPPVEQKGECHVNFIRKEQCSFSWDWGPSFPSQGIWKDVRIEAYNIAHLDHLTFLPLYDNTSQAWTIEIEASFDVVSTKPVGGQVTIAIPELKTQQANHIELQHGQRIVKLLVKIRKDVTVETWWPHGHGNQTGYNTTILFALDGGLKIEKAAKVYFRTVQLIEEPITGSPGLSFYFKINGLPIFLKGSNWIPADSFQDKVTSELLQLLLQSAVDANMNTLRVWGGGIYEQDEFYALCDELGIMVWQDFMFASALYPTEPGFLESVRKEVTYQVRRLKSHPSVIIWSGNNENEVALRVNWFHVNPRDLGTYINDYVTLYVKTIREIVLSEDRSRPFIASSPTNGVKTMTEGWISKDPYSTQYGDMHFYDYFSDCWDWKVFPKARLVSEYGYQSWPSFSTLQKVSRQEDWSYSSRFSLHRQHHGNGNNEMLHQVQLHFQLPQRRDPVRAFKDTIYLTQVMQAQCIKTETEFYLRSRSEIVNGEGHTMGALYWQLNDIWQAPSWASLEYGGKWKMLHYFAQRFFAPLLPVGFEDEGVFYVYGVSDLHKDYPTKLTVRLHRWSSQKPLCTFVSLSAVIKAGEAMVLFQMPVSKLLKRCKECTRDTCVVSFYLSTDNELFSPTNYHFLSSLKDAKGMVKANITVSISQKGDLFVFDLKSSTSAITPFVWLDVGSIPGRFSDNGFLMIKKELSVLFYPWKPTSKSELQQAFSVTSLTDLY
Nature of the assay: Concentration required to inhibit beta-mannosidase; IA means inactive.

The target of assay [4] is Maltase-glucoamylase (Homo sapiens) (UniProt O43451). Put plainly: Concentration required to inhibit alpha-glucosidase.
Chain of Maltase-glucoamylase (Homo sapiens) (O43451 whole entry, looked up): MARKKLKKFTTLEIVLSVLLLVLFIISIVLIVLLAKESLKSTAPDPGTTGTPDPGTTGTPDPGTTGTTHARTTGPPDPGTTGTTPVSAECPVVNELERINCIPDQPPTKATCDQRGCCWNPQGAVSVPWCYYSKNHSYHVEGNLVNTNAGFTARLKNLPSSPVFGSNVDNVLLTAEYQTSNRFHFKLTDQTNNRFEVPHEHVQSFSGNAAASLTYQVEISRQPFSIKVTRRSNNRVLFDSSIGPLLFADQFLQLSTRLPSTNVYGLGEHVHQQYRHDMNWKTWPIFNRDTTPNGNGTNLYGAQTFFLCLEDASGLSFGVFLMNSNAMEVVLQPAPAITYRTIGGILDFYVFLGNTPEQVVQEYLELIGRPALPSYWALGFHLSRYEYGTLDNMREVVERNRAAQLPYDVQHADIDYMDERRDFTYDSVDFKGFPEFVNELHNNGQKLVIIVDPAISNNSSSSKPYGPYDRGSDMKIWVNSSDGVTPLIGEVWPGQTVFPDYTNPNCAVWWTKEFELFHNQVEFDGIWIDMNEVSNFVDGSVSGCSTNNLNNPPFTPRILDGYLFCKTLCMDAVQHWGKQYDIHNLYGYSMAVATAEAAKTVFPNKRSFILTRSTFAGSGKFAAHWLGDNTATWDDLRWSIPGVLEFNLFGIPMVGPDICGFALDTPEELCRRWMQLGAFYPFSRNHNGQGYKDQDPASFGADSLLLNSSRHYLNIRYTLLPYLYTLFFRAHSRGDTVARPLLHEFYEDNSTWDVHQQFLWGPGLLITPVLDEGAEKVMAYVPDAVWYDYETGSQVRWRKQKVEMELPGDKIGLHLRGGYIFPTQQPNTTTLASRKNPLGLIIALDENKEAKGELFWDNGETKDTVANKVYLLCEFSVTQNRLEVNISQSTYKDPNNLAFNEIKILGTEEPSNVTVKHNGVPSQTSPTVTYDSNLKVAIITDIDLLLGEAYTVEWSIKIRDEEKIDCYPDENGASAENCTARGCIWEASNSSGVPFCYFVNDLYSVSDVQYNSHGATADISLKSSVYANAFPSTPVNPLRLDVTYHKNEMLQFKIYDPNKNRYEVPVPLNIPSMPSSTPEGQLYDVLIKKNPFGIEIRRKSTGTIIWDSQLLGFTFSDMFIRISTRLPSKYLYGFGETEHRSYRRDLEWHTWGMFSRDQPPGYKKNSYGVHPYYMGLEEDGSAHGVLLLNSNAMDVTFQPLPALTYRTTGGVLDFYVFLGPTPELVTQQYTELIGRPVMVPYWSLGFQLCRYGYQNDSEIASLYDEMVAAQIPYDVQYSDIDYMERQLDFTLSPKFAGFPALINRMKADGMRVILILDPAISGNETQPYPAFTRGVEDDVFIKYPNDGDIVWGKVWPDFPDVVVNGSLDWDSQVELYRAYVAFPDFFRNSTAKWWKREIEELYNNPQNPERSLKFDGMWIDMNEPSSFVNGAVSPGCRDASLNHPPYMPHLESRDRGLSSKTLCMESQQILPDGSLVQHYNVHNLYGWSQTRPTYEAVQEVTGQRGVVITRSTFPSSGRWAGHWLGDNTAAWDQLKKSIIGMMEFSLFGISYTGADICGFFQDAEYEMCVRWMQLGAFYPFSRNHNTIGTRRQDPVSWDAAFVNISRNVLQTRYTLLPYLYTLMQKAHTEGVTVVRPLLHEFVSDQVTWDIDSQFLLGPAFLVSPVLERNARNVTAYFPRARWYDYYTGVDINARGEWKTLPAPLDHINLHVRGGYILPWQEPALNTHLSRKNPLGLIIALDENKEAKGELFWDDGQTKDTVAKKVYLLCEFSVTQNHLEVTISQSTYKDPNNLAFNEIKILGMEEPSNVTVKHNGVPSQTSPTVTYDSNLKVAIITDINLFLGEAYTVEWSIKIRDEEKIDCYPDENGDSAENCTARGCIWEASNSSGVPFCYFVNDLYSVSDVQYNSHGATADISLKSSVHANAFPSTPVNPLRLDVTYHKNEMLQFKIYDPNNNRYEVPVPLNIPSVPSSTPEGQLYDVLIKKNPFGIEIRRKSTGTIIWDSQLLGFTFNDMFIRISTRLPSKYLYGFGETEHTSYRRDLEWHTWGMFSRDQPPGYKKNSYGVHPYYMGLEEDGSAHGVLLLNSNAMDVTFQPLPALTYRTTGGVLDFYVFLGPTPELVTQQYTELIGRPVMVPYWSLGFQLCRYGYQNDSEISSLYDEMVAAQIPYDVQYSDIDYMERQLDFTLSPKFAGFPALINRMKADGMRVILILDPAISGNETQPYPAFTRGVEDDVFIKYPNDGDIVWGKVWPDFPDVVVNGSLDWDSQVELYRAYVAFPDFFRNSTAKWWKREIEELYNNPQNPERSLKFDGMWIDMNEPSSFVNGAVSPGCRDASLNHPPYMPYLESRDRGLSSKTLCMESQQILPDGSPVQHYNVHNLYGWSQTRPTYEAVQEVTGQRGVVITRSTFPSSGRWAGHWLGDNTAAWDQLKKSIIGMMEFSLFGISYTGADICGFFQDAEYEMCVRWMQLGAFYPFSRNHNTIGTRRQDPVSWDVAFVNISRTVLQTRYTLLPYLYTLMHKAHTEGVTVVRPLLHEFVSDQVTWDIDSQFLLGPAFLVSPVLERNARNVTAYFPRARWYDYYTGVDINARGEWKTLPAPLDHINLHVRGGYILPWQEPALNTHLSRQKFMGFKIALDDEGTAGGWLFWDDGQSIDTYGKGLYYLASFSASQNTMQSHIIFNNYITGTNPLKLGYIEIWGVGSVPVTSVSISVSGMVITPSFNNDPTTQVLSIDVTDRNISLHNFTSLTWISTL
A short description of assay [5]: Concentration required to inhibit alpha-mannosidase; IA means inactive.
For assay [6], the target named is T3, Alpha-galactosidase A (Homo sapiens) (UniProt P06280).
T3 sequence (whole entry): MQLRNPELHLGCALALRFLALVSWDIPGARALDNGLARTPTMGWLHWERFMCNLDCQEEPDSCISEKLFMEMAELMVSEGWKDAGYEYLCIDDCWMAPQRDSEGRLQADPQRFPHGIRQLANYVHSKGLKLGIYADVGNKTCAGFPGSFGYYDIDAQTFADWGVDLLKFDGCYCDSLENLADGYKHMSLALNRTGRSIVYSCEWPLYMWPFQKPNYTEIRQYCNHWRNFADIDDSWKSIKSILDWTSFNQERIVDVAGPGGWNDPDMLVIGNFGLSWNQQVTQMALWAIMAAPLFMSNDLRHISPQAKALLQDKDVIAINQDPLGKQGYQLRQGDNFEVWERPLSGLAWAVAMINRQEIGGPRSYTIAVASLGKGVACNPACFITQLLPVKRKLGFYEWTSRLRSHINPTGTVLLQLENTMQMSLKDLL
Put plainly: Concentration required to inhibit alpha-galactocosidase; IA means inactive.

Assay [7] has as its target Maltase-glucoamylase (Homo sapiens) (UniProt O43451). Nature of the assay: Concentration required to inhibit alpha-glucosidase; IA means inactive.
Assay [8] deals with T3, Alpha-galactosidase A (Homo sapiens). Nature of the assay: Concentration required to inhibit alpha-galactocosidase.
Assay [9] deals with T2, Beta-mannosidase (Rattus norvegicus). Nature of the assay: Concentration required to inhibit beta-mannosidase.
For assay [10], the target named is T1, Beta-galactosidase (Homo sapiens). Put plainly: Concentration required to inhibit beta-galactosidase; IA means inactive.

Active and inactive are the calls of the source. The calls are words filed in the database; no cut-off is given here.

Chain of Beta-glucosidase A (Caldicellulosiruptor saccharolyticus) (P10482 whole entry): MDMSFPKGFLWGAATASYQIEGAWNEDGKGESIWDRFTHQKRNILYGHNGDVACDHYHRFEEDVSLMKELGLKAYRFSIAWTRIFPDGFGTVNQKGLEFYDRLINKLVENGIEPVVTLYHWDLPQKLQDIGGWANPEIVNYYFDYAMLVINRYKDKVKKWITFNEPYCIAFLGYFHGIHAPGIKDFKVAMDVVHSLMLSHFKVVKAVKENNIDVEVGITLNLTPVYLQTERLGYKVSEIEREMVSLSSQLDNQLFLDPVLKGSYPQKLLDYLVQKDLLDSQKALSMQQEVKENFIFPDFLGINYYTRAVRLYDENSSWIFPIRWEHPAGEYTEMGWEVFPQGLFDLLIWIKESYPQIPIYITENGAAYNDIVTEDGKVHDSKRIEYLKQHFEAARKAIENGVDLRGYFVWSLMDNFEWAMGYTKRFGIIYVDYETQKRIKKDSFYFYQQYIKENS

In the case of `O[C@@H]1[C@@H](O)[C@@H](O)[C@H](O[C@H]2[C@@H](O)[C@H](O)[C@@H](O)[C@@H](O)[C@@H]2O)[C@@H](O)[C@H]1O`, the Concentration in assay [1] was 600 µM; in assay [4], 800 µM. Further, the Concentration result in assay [2], in [3], in assay [5] and in assay [6] was “inactive” throughout.

In the case of `O[C@H]1[C@H](O)[C@@H](O)C=C[C@H]1O`, the Concentration in [1] is 600 µM. Further, the Concentration result in [2], in assay [3], in [5], in [6] and in assay [7] was “inactive” each time.

As to `O[C@H]1[C@H](O)[C@@H](O[C@H]2C=C[C@@H](O)[C@@H](O)[C@@H]2O)C=C[C@H]1O`, the Concentration in assay [1] was determined as 250 µM; in assay [8] it was 275 µM; in [9], 1.5 mM. Also, the Concentration entry in assay [2], in assay [5] and in [7] was “inactive” each time.

With `O[C@H]1[C@H](O)[C@@H](O)[C@H](O)[C@@H](O)[C@H]1O`, the Concentration entry in assay [2], in [3], in [5], in assay [6], in assay [7] and in [10] was “inactive” each time.

Regarding `O[C@H]1[C@H](O)[C@@H](O[C@H]2[C@H](O)[C@H](O)C=C[C@@H]2O)C=C[C@H]1O`, the Concentration was 190 µM in assay [1], 850 µM in assay [8] and 60 µM in [4]. For the same compound, the Concentration result in assay [2], in assay [3] and in assay [5] was “inactive” in each case.
